This note sets out measurements from US10344060B2 (priority 2013, dated 2019).

The target of one assay is hNav1.4 (Homo sapiens, UniProt P35499). Nature of the assay: cell-based. It counts as cell-based. Conditions: Table 12; for IC50: PatchXpress, tonic block, read-out: PX hNav1.4 Tonic IC50; for Nav1.4/Nav1.7: ratio of PX tonic IC50 values.
Another assay has as its target hNav1.7 (Homo sapiens, UniProt Q15858). Put plainly: cell-based. It counts as cell-based. Conditions: Table 12; PatchXpress, tonic block; read-out: PX hNav1.7 Tonic IC50.

The structures appear in SMILES notation.

As usually defined, the IC50 is the midpoint of a concentration-inhibition curve.

Sequence of hNav1.4 (P35499 whole entry): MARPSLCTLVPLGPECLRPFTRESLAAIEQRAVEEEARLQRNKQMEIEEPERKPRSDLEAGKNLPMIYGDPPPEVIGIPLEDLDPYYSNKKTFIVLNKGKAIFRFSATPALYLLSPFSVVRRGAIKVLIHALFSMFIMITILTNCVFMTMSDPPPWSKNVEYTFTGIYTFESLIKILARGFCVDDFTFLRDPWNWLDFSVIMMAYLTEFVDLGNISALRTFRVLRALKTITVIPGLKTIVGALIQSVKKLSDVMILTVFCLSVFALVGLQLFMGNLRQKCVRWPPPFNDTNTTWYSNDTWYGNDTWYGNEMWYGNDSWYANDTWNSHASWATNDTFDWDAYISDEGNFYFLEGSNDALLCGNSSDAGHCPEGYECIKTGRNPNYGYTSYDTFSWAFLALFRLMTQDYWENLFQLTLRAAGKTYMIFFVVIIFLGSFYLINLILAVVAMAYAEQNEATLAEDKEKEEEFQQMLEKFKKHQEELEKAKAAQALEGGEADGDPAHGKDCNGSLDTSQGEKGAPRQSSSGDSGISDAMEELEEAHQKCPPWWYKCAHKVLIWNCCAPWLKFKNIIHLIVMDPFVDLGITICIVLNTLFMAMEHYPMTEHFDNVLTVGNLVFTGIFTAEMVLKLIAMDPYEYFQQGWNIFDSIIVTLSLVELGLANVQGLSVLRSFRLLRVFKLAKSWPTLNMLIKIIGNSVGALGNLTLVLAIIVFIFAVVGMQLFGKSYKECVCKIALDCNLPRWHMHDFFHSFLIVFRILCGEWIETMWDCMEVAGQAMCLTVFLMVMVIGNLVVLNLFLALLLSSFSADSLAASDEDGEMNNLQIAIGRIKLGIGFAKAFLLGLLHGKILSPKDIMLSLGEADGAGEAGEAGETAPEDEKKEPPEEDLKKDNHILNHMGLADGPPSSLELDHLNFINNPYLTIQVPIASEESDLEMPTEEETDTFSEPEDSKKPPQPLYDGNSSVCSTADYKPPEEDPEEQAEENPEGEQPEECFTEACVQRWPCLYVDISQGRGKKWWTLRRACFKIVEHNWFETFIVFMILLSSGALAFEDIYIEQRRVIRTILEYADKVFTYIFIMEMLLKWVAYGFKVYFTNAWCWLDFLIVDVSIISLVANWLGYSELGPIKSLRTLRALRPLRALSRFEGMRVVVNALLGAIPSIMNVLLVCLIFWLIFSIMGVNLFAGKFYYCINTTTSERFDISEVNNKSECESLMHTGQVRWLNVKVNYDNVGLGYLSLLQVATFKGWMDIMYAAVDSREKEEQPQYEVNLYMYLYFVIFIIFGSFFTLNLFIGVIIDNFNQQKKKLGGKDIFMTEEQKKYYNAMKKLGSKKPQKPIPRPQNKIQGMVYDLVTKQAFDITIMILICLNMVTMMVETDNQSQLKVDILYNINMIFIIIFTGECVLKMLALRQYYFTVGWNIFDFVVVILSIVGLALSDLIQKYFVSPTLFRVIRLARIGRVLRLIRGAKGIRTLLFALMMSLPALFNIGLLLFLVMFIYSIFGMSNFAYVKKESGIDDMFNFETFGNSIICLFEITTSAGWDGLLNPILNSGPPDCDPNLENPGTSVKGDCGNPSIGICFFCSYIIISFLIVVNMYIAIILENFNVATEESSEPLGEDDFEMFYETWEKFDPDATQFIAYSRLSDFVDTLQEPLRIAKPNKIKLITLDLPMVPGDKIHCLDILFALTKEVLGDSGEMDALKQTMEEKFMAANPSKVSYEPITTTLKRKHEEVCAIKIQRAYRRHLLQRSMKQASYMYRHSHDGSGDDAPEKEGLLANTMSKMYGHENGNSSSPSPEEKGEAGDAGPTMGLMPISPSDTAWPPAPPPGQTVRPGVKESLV
Sequence of hNav1.7 (Q15858 whole entry): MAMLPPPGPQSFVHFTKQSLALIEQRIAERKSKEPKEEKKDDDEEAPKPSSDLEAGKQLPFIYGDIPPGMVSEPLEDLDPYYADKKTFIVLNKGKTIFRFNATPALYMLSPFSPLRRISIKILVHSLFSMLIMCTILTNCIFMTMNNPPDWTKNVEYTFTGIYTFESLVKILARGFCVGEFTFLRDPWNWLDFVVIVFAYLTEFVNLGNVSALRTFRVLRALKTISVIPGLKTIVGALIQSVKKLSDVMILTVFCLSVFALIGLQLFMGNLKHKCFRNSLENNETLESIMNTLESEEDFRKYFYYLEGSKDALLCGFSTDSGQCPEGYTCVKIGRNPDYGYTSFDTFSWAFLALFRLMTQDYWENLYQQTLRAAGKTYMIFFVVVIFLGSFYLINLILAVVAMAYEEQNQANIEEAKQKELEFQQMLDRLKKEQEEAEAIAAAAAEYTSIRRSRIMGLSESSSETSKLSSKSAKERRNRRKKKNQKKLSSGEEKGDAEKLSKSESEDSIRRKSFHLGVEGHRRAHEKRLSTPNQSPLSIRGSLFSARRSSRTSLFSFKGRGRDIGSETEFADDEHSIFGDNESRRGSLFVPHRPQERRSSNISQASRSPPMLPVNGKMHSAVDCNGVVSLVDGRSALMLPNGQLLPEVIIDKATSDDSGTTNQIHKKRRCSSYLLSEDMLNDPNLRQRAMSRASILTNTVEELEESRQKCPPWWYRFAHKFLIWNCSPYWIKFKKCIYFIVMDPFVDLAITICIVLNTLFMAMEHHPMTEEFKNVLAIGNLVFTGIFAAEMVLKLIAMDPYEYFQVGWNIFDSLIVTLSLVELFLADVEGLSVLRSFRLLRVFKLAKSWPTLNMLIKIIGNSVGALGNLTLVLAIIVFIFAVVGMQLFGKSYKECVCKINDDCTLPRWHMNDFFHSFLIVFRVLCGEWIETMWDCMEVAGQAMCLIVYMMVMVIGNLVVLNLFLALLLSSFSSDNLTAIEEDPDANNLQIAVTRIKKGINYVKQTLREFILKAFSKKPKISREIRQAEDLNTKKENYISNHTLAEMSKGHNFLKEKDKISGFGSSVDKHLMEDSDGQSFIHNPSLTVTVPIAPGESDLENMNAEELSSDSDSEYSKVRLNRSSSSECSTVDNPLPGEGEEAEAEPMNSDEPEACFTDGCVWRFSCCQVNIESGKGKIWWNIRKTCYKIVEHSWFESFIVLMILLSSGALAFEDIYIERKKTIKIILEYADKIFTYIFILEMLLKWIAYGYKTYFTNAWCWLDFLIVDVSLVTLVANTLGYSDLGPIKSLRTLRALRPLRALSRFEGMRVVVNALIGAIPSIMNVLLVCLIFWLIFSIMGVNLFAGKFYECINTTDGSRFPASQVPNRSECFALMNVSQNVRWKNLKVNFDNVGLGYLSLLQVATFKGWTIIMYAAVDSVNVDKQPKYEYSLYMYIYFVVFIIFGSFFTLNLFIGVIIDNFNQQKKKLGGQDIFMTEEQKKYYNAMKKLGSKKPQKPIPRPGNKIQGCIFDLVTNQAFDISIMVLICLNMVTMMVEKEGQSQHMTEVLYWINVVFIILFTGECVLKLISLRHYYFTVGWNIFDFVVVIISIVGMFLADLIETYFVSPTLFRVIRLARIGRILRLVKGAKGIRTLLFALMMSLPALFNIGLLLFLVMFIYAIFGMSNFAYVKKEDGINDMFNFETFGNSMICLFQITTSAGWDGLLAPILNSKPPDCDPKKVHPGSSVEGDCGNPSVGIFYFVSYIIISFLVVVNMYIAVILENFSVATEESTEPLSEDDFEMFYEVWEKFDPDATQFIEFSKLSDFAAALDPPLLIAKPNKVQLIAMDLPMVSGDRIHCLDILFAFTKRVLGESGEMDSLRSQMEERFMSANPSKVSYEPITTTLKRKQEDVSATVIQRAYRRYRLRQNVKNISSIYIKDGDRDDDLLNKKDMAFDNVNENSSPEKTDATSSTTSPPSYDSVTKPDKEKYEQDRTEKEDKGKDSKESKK

Regarding `C#CC[C@H](N)C(=O)N[C@@H](Cc1ccc(O)cc1)C(=O)N[C@H]1CSSC[C@@H]2NC(=O)[C@@H]3CSSC[C@@H](C(=O)N[C@@H](CCCNC(=N)N)C(=O)N[C@@H](CCCCN)C(=O)N[C@@H](CCC(=O)O)C(=O)N[C@H](C(N)=O)[C@@H](C)CC)NC(=O)[C@H](Cc4c[nH]c5ccccc45)NC(=O)[C@H](C4CCCCC4)NC(=O)[C@H](CCCCN)NC(=O)[C@H](CSSC[C@H](NC(=O)[C@H]([C@@H](C)O)NC(=O)[C@H](Cc4c[nH]c5ccccc45)NC(=O)[C@H](CCCC)NC(=O)[C@H](Cc4c[nH]c5ccccc45)NC(=O)[C@H](CCCCN)NC(=O)[C@H](CCC(N)=O)NC1=O)C(=O)N[C@@H](CC(=O)O)C(=O)N[C@@H](CO)C(=O)N[C@@H](CCCCN)C(=O)N[C@@H](CCCNC(=N)N)C(=O)N[C@@H](C)C(=O)N3)NC(=O)[C@H](CCCNC(=N)N)NC(=O)[C@H](CC(C)C)NC(=O)CNC(=O)[C@H](CCC(=O)O)NC2=O` [compound 859], on hNav1.4, the IC50 was found to be 177 nM and the Nav1.4/Nav1.7 was 361. Also, the IC50 on hNav1.7 was 0.489 nM.

In the case of `C#CC[C@H](N)C(=O)N[C@@H](Cc1ccc(O)cc1)C(=O)N[C@H]1CSSC[C@@H]2NC(=O)[C@@H]3CSSC[C@@H](C(=O)N[C@@H](CCCNC(=N)N)C(=O)N[C@@H](CCCCN)C(=O)N[C@@H](CCC(=O)O)C(=O)N[C@H](C(N)=O)[C@@H](C)CC)NC(=O)[C@H](Cc4c[nH]c5ccccc45)NC(=O)[C@H](CC4CCCCC4)NC(=O)[C@H](CCCCN)NC(=O)[C@H](CSSC[C@H](NC(=O)[C@H]([C@@H](C)O)NC(=O)[C@H](Cc4c[nH]c5ccccc45)NC(=O)[C@H](CCCC)NC(=O)[C@H](Cc4c[nH]c5ccccc45)NC(=O)[C@H](CCCCN)NC(=O)[C@H](CCC(N)=O)NC1=O)C(=O)N[C@@H](CC(=O)O)C(=O)N[C@@H](CO)C(=O)N[C@@H](CCCCN)C(=O)N[C@@H](CCCNC(=N)N)C(=O)N[C@@H](C)C(=O)N3)NC(=O)[C@H](CCCNC(=N)N)NC(=O)[C@H](CC(C)C)NC(=O)CNC(=O)[C@H](CCC(=O)O)NC2=O` [compound 860], at hNav1.4, the IC50 stood at 117 nM and the Nav1.4/Nav1.7 is 73. Further, the IC50 on hNav1.7 was found to be 1.61 nM.

On to `C#CC[C@@H]1NC(=O)[C@H](CC(=O)O)NC(=O)[C@@H]2CSSC[C@@H]3NC(=O)[C@H](CCCNC(=N)N)NC(=O)[C@H](CC(C)C)NC(=O)CNC(=O)[C@H](CCC(=O)O)NC(=O)[C@H](CSSC[C@H](NC(=O)[C@H](Cc4ccc(O)cc4)NC(=O)[C@@H](N)CC#N)C(=O)N[C@@H](CCC(N)=O)C(=O)N[C@@H](CCCCN)C(=O)N[C@@H](Cc4c[nH]c5ccccc45)C(=O)N[C@@H](CCCC)C(=O)N[C@@H](Cc4c[nH]c5ccccc45)C(=O)N[C@@H]([C@@H](C)O)C(=O)N2)NC(=O)[C@H](CSSC[C@@H](C(=O)N[C@@H](CCCNC(=N)N)C(=O)N[C@@H](CCCCN)C(=O)N[C@@H](CCC(=O)O)C(=O)N[C@H](C(N)=O)[C@@H](C)CC)NC(=O)[C@H](Cc2c[nH]c4ccccc24)NC(=O)[C@H](CC(C)C)NC(=O)[C@H](CCCCN)NC3=O)NC(=O)[C@H](C)NC(=O)[C@H](CCCNC(=N)N)NC(=O)[C@H](CCCCN)NC1=O` [compound 520], for which the IC50 was 517 nM at hNav1.4 and 0.193 nM at hNav1.7. At hNav1.4, the Nav1.4/Nav1.7 amounted to 2673.

As for `C#CC[C@@H]1NC(=O)[C@@H]2CSSC[C@H](NC(=O)[C@H](Cc3ccc(O)cc3)NC(=O)[C@@H](N)CC#N)C(=O)N[C@@H](CCC(N)=O)C(=O)N[C@@H](CCCCN)C(=O)N[C@@H](Cc3c[nH]c4ccccc34)C(=O)N[C@@H](CCCC)C(=O)N[C@@H](Cc3c[nH]c4ccccc34)C(=O)N[C@@H]([C@@H](C)O)C(=O)N[C@H]3CSSC[C@H](NC(=O)[C@H](CCC(=O)O)NC(=O)[C@H](CC(C)C)NC(=O)CNC1=O)C(=O)N[C@@H](CCCCN)C(=O)N[C@@H](CC(C)C)C(=O)N[C@@H](Cc1c[nH]c4ccccc14)C(=O)N[C@H](C(=O)N[C@@H](CCCNC(=N)N)C(=O)N[C@@H](CCCCN)C(=O)N[C@H](C(=O)N[C@H](C(N)=O)[C@@H](C)CC)[C@@H](C)CC)CSSC[C@H](NC(=O)[C@H](C)NC(=O)[C@H](CCCNC(=N)N)NC(=O)[C@H](CCCCN)NC(=O)[C@H](CO)NC(=O)[C@H](CC(=O)O)NC3=O)C(=O)N2` [compound 396], on hNav1.4, the IC50 amounted to 278 nM and the Nav1.4/Nav1.7 turned out to be 98. Further, at hNav1.7, the IC50 was found to be 2.84 nM.

For the compound `C#CC[C@H](N)C(=O)NCCCC[C@@H]1NC(=O)[C@H](CCCNC(=N)N)NC(=O)[C@H](CCCCN)NC(=O)[C@H](CO)NC(=O)[C@H](CC(=O)O)NC(=O)[C@@H]2CSSC[C@@H]3NC(=O)[C@H](CCCNC(=N)N)NC(=O)[C@H](CC(C)C)NC(=O)CNC(=O)[C@H](CCC(=O)O)NC(=O)[C@H](CSSC[C@H](NC(=O)[C@H](Cc4ccc(O)cc4)NC(=O)[C@@H](N)CCC)C(=O)N[C@@H](CCC(N)=O)C(=O)N[C@@H](CCCCN)C(=O)N[C@@H](Cc4c[nH]c5ccccc45)C(=O)N[C@@H](CCCC)C(=O)N[C@@H](Cc4c[nH]c5ccccc45)C(=O)N[C@@H]([C@@H](C)O)C(=O)N2)NC(=O)[C@H](CSSC[C@@H](C(=O)N[C@@H](CCCNC(=N)N)C(=O)N[C@@H](CCCCN)C(=O)N[C@H](C(=O)N[C@H](C(N)=O)[C@@H](C)CC)[C@@H](C)CC)NC(=O)[C@H](Cc2c[nH]c4ccccc24)NC(=O)[C@H](CC(C)C)NC(=O)[C@H](CCCCN)NC3=O)NC1=O` [compound 431], the Nav1.4/Nav1.7 at hNav1.4 was 13. Further, the concentration for half-maximal inhibition (IC50) on hNav1.7 was determined as 1.63 nM.

On to `C#CC[C@@H]1NC(=O)[C@@H]2CSSC[C@H](NC(=O)[C@H](Cc3ccc(O)cc3)NC(=O)[C@@H](N)CC#N)C(=O)N[C@@H](CCC(N)=O)C(=O)N[C@@H](CCCCN)C(=O)N[C@@H](Cc3c[nH]c4ccccc34)C(=O)N[C@@H](CCCC)C(=O)N[C@@H](Cc3c[nH]c4ccccc34)C(=O)N[C@@H]([C@@H](C)O)C(=O)N[C@H]3CSSC[C@H](NC(=O)[C@H](CCCNC(=N)N)NC(=O)[C@H](CC(C)C)NC(=O)CNC1=O)C(=O)N[C@@H](CCCCN)C(=O)N[C@@H](CC(C)C)C(=O)N[C@@H](Cc1c[nH]c4ccccc14)C(=O)N[C@H](C(=O)N[C@@H](CCCNC(=N)N)C(=O)N[C@@H](CCCCN)C(=O)N[C@@H](CCC(=O)O)C(=O)N[C@@H](Cc1c[nH]c4ccccc14)C(N)=O)CSSC[C@H](NC(=O)[C@H](C)NC(=O)[C@H](CCCNC(=N)N)NC(=O)[C@H](CCCCN)NC(=O)[C@H](CO)NC(=O)[C@H](CC(=O)O)NC3=O)C(=O)N2` [compound 452], for which the IC50 on hNav1.4 was 64.6 nM; on hNav1.7 it was 2.51 nM. For the same compound, on hNav1.4, the Nav1.4/Nav1.7 came out at 26.

`C#CC[C@H](N)C(=O)N[C@@H](Cc1ccc(O)cc1)C(=O)N[C@H]1CSSC[C@@H]2NC(=O)[C@@H]3CSSC[C@@H](C(=O)N[C@@H](CCCNC(=N)N)C(=O)N[C@@H](CCCCN)C(=O)N[C@@H](CCC(=O)O)C(=O)N[C@H](C(=O)NCC(=O)O)[C@@H](C)CC)NC(=O)[C@H](Cc4c[nH]c5ccccc45)NC(=O)[C@H](CC(C)C)NC(=O)[C@H](CCCCN)NC(=O)[C@H](CSSC[C@H](NC(=O)[C@H]([C@@H](C)O)NC(=O)[C@H](Cc4c[nH]c5ccccc45)NC(=O)[C@H](CCCC)NC(=O)[C@H](Cc4c[nH]c5ccccc45)NC(=O)[C@H](CCCCN)NC(=O)[C@H](CCC(N)=O)NC1=O)C(=O)N[C@@H](CC(=O)O)C(=O)N[C@@H](CO)C(=O)N[C@@H](CCCCN)C(=O)N[C@@H](CCCNC(=N)N)C(=O)N[C@@H](C)C(=O)N3)NC(=O)[C@H](CCCNC(=N)N)NC(=O)[C@H](CC(C)C)NC(=O)CNC(=O)[C@H](CCC(=O)O)NC2=O` [compound 828]: on hNav1.4, the IC50 is 1760 nM and the Nav1.4/Nav1.7 is listed as 211. Moreover, the half-inhibitory concentration (IC50) on hNav1.7 stood at 8.34 nM.
